Reference: ChEMBL document CHEMBL4152187, “Plant-derived mPGES-1 inhibitors or suppressors: A new emerging trend in the search for small molecules to combat inflammation” (Eur J Med Chem, 2018)
Blank lines part the entries; values can stand above or below the molecule they belong to.

Legend:
Prostaglandin E synthase [1] = target: T1, Prostaglandin E synthase (Homo sapiens, UniProt O14684); experiment: Inhibition of mPGES1 in human A549 cell microsomal membrane using pGH2 as substrate pretreated for 15 mins followed by substrate addition and measured after 1 min by RP-HPLC method
T1 sequence (O14684 whole entry): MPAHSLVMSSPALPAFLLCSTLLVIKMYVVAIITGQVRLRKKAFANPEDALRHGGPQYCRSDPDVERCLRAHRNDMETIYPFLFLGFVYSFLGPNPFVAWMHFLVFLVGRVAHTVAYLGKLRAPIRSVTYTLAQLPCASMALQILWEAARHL

J774 [2] = experiment: Inhibition of LPS-stimulated mPGES1 expression in mouse J774 cells; type: functional, cell-based
[3] = target: T2, Prostaglandin E synthase (Homo sapiens) (UniProt O14684); experiment: Inhibition of mPGES1 in human HeLa cells assessed as reduction in PGE2 production at 50 uM by enzyme immunoassay relative to control; type: cell-based
T2 sequence (whole entry): T1 sequence (O14684 whole entry)

[4] = target: Prostaglandin G/H synthase 2 (Homo sapiens) (UniProt P35354); experiment: Inhibition of COX2 in human A375 cells assessed as reduction in PGE2 production up to 20 uM by immunoblot analysis relative to control
Sequence of Prostaglandin G/H synthase 2 (Homo sapiens) (P35354 whole entry, looked up): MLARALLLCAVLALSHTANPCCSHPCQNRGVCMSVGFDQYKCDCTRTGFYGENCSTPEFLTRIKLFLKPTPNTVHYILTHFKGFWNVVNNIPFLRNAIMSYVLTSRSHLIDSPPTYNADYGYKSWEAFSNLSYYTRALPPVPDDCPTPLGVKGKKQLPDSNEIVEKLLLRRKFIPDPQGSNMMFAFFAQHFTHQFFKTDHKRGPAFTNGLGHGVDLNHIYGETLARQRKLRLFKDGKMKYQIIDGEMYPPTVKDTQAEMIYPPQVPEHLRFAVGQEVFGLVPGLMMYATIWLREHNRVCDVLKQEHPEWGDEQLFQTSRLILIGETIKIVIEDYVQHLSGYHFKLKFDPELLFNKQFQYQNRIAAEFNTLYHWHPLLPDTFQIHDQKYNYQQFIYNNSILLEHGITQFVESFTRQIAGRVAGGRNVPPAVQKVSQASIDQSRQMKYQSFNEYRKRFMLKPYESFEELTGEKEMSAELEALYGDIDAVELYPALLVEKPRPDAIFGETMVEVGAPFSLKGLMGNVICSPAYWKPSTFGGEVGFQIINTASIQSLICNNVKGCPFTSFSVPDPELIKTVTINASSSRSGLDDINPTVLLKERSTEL

[5] = target: Prostaglandin G/H synthase 2 (Homo sapiens) (UniProt P35354); experiment: Inhibition of COX2 in human Hs294 cells assessed as reduction in PGE2 production up to 20 uM by immunoblot analysis relative to control
Rattus norvegicus [6] = experiment: Antiinflammatory activity against carrageenan-induced pleurisy in rat assessed as reduction in exudate formation at 3.6 mg/kg, ip relative to control; type: functional; set-up: scale not given: the % may be the effect or the level left
Rattus norvegicus [7] = experiment: Antiinflammatory activity against carrageenan-induced pleurisy in rat assessed as reduction in cell infiltration at 3.6 mg/kg, ip relative to control; type: functional; set-up: scale not given: the % may be the effect or the level left
Rattus norvegicus [8] = experiment: Antiinflammatory activity against carrageenan-induced pleurisy in rat assessed as reduction in PGE2 level at 3.6 mg/kg, ip relative to control; type: functional; set-up: scale not given: the % may be the effect or the level left
Prostaglandin E synthase [9] = target: T1, Prostaglandin E synthase; experiment: Inhibition of mPGES1 in human A549 cell microsomes
J774 [10] = experiment: Inhibition of LPS-induced mPGES1 mRNA expression in mouse J774 cells at 100 uM measured after 6 to 24 hrs by qRT-PCR analysis; type: functional

SMILES: CC(=O)O[C@@H]1CC[C@@]2(C)[C@@H](CC[C@]3(C)[C@@H]2CC=C2[C@@H]4[C@@H](C)[C@H](C)CC[C@]4(C)CC[C@]23C)[C@@]1(C)C(=O)O
- IC50 (Prostaglandin E synthase [1]): ≥ 30000 nM

SMILES: C=C(C)[C@H](CC=C(C)C)C[C@]12C[C@H](CC=C(C)C)C(C)(C)[C@](CC=C(C)C)(C(=O)C(C(=O)c3ccc(O)c(O)c3)=C1O)C2=O
- IC50 (Prostaglandin E synthase [1]): 300 nM

SMILES: COc1ccc2cc3[n+](cc2c1OC)CCc1cc2c(cc1-3)OCO2
- inhibition [3]: 71.9%
- inhibition [4]: 15 to 75%
- inhibition [5]: 16 to 63%

SMILES: C[C@H]1[C@H](C)CC[C@]2(C)CC[C@]3(C)C(=CC(=O)[C@@H]4[C@@]5(C)CC[C@@H](O)[C@](C)(C(=O)O)[C@@H]5CC[C@]43C)[C@H]12 [11-KETO BOSWELLIC ACID]
- IC50 (Prostaglandin E synthase [1]): 10000 nM

SMILES: CCc1oc(=O)c(Cc2c(O)c(CC=C(C)C)c(O)c(C(C)=O)c2O)c(O)c1C [ARZANOL]
- Activity (Rattus norvegicus [6]): 59%
- Activity (Rattus norvegicus [7]): 48%
- Activity (Rattus norvegicus [8]): 47%

SMILES: COC(=O)c1c(C)cc(OC(=O)c2c(C)cc(O)c(C=O)c2O)c(C)c1O [ATRANORIN]
- IC50 (Prostaglandin E synthase [1]): 1150 nM

SMILES: O=C(O[C@@H]1Cc2c(O)cc(O)cc2O[C@@H]1c1cc(O)c(O)c(O)c1)c1cc(O)c(O)c(O)c1 [EPIGALOCATECHIN GALLATE]
- IC50 (Prostaglandin E synthase [1]): 1800 nM

SMILES: COc1cc(-c2oc3cc(O)cc(O)c3c(=O)c2O)ccc1O [ISORHAMNETIN]
- inhibition at 100 µM (J774 [10]): > 50%

SMILES: O=c1c(O)c(-c2ccc(O)cc2)oc2cc(O)cc(O)c12 [KAEMPFEROL]
- inhibition at 100 µM (J774 [10]): > 50%

The remaining lines, values ahead:

- IC50 (Prostaglandin E synthase [1]): 430 nM
SMILES: CCCCCc1cc(OC(=O)c2c(O)cc(OC)cc2CCCCC)cc(O)c1C(=O)O

- IC50 (J774 [2]): 14000 nM
SMILES: COc1cc(C[C@@H]2COC(=O)[C@]2(O)Cc2ccc(O)c(OC)c2)ccc1O

- IC50 (Prostaglandin E synthase [1]): 400 nM
SMILES: CCCCCC(=O)Cc1cc(O)cc(O)c1C(=O)Oc1cc(O)c(C(=O)O)c(CCCCC)c1

- IC50 (Prostaglandin E synthase [1]): 300 nM
SMILES: COc1cc(/C=C/C(=O)CC(=O)/C=C/c2ccc(O)c(OC)c2)ccc1O [CURCUMIN]

- IC50 (Prostaglandin E synthase [9]): 200 nM
SMILES: CCCCCCCCCCCC1=C(O)C(=O)C=C(O)C1=O [EMBELIN]
